# Laboratory results reported in US11897902B1, “Nano-sized mixed ligand [4-bromo-2-(quinolin-2-yliminomethyl)-phenol imine- phenanthroline] Ru(III) complex for medicinal applications” (KING FAISAL UNIVERSITY, priority 2023, dated 2024).
# Experiments:
# Assay type in all cases: cell-based
# Aspergillus flavus = assay: Antifungal activity, well diffusion method (inhibition zone, MIC)
# Method: To evaluate antimicrobial activity, the fungal strain (Aspergillus flavus), was used. These strains were cultured in nutrient agar and Muller-Hinton medium. Fluconazole compound was used as a standard drug for comparison.
# Antifungal activities of the prepared nano-complex were studied against three fungal cultures using well diffusion method. The tested fungi were inoculated in Sabouraud dextrose broth medium (Hi-Media Mumbai) and incubated at 35° C. for 72 h and subsequently a suspension of about 1.60×10^4-6.00×10^4 c.f.u/ml was introduced agar plates and a sterile glass spreader was used for even distribution of the inoculum. The discs measuring 6 mm in diameter were prepared from Whatman No. 1 filter paper and sterilized by dry heat at 140° C. for 1 h. The sterile discs previously soaked in known concentration of the tested compounds were placed in Sabouraud dextrose Agar (SDA) plates. The plates were inverted and incubated at 35° C. for 7 days. The susceptibility was assessed on the basis of diameter of inhibition against albicans and non-albicans strain of fungi.
# Escherichia coli(−ve) = assay: Antimicrobial activity, agar well diffusion (inhibition zone, MIC); details: E. coli
# Method: To evaluate antimicrobial activity, the bacterial strain Escherichia coli(−ve), was used. These strains were cultured in a nutrient agar and Muller-Hinton medium. Ofloxacin compound was used as a standard drug for comparison.
# The susceptibilities of such growth rate of microorganisms were measured in vitro by agar well diffusion method. The tested nano complex was dissolved in dimethyl sulfoxide at different concentrations (10 and 20 mg/ml). 1 cm^3 of a 24 h broth culture containing 10^6 CFU/cm^3 was placed in sterile Petri-dishes. Molten nutrient agar (15 cm 3) maintained at 45° C. was then poured into the Petri-dishes and allowed to solidify. Then holes of 6 mm diameter were formed in the agar using a sterile cork borer and these holes were completely filled with the test solutions. The plates were incubated for 24 h at 37° C. After the incubation period, the zone of inhibition of each well was determined by measuring the zones of growth inhibition (mm) against the test microorganisms with zone reader (Hi Antibiotic zone scale). […] The measurements were made in triplicate for each compound and their average values are reported.
# Breast cancer cells line = assay: Cytotoxic activity, Sulfo-Rhodamine-B-stain (SRB); details: Homo sapiens, breast cancer cell line, 48 hours
# Method: The anticancer activity was made at the National Cancer Institute, Cancer Biology Department, Pharmacology Department, Cairo University. The absorbance or optical density (O.D.) of each well was measured spectrophotometrically at 564 (nm) with an “ELIZA” micro plate reader (Meter tech. Σ960, “USA”). Evaluation of the cytotoxic activity of the prepared nano-complex was carried out against Breast cancer cells line. The evaluation process was carried out in vitro using the Sulfo-Rhodamine-B-stain (SRB). Cells were placed in 96-multiwell plate (10^4 cells/well) for 24 hours before processing with the complexes to allow attachment of cell to the wall of the plate. Various concentrations of the compounds under test in DMSO (0, 1, 2.5, 5 and 10 μM) were added to the cell monolayer. Monolayer cells were incubated with the complexes for 48 hours at 37° C. and in atmosphere of 5% CO2. After 48 hours, cells were fixed, rinsed, and stained with Sulfo-Rhodamine-B-stain. Excess stain was washed with acetic acid and attached stain was treated with Tris EDTA buffer. Color intensity was measured in an ELISA reader. IC50 was evaluated and potency was calculated with regard to percentage of change of (vistabline standard). The relation between surviving fraction and compound concentration is plotted to get the survival curve of each tumor cell line after the specified compound. […]
structure (smiles),measurement,setting,value
"OC(Cn1cncn1)(Cn1cncn1)c1ccc(F)cc1F [Fluconazol, Fluconazole]",MIC,Aspergillus flavus,2 µg/mL
same,inhibition zone,"Aspergillus flavus; well diffusion, 35° C. for 7 days",24 mm
CC1COc2c(N3CCN(C)CC3)c(F)cc3c(=O)c(C(=O)O)cn1c23 (centres unmarked) [Ofloxacin],inhibition zone,"Escherichia coli(−ve); agar well diffusion, 24 h at 37° C.",35 mm
same,MIC,Escherichia coli(−ve); Escherichia coli,2.5 µg/mL
CC[C@]1(O)C[C@@H]2CN(CCc3c([nH]c4ccccc34)[C@@](C(=O)OC)(c3cc4c(cc3OC)N(C)[C@H]3[C@@](O)(C(=O)OC)[C@H](OC(C)=O)[C@]5(CC)C=CCN6CC[C@]43[C@@H]65)C2)C1 [vinblastine],IC50,Breast cancer cells line,4.5 µg/mL
